Results from the RepoRT retention time repository (doi:10.1016/j.jchromb.2020.122105).

Legend:
Conditions in all cases: stereoisomer not certain
[1] = RP, Waters CORTECS T3, 100 × 2.1 mm, 2.7 µm, 0.2 mL/min, estimated dead time 1.1 min; A: water + 0.1% formic acid, pH 3; B: methanol + 0.1% formic acid, pH 3; gradient (min/%B) 0/0 1/0 6/5 30/100 35/100 35.1/0 40/0
[2] = RP, Waters ACQUITY UPLC BEH C18, 100 × 2.1 mm, 1.7 µm, 0.2 mL/min, estimated dead time 1.1 min; A: water + 0.1% formic acid, pH 3; B: methanol + 0.1% formic acid, pH 3; gradient (min/%B) 0/5 5/5 25/100 30/100 30.1/5 35/5
[3] = HILIC, Merck SeQuant ZIC-HILIC, 150 × 2.1 mm, 5 µm, 0.75 mL/min, estimated dead time 0.44 min; A: water + 10 mM ammonium formate, pH 6; B: 5% water + 95% acetonitrile + 10 mM ammonium formate, pH 6; gradient (min/%B) 0/95 5/95 20/57 25/57 30/95 40/95
[4] = RP, Waters CORTECS T3, 100 × 2.1 mm, 2.7 µm, 0.3 mL/min, estimated dead time 0.73 min; A: water + 0.1% formic acid, pH 3; B: methanol + 0.1% formic acid, pH 3; gradient (min/%B) 0/0 1/0 6/5 30/100 35/100 35.1/0 40/0
[5] = RP, Waters ACQUITY UPLC BEH C18, 100 × 2.1 mm, 1.7 µm, 0.1 mL/min, estimated dead time 2.2 min; A: water + 0.1% formic acid, pH 3; B: methanol + 0.1% formic acid, pH 3; gradient (min/%B) 0/5 5/5 25/95 25.1/100 35/100 35.1/5 45/5
[6] = RP, Waters CORTECS T3, 100 × 2.1 mm, 2.7 µm, 0.25 mL/min, estimated dead time 0.88 min; A: water + 0.1% formic acid, pH 3; B: methanol + 0.1% formic acid, pH 3; gradient (min/%B) 0/5 5/5 25/95 25.1/100 35/100 35.1/5 45/5
[7] = RP, Waters CORTECS T3, 100 × 2.1 mm, 2.7 µm, 0.15 mL/min, estimated dead time 1.5 min; A: water + 0.1% formic acid, pH 3; B: methanol + 0.1% formic acid, pH 3; gradient (min/%B) 0/5 5/5 25/95 25.1/100 35/100 35.1/5 45/5
[8] = HILIC, Waters XBridge BEH Amide, 100 × 2.1 mm, 2.5 µm, 0.5 mL/min, estimated dead time 0.44 min; A: water + 0.1% acetic acid + 10 mM ammonium acetate, pH 4; B: 5% water + 95% acetonitrile + 0.1% acetic acid + 10 mM ammonium acetate, pH 4; gradient (min/%B) 0/95 5/95 20/57 25/57 30/95 40/95
[9] = RP, Waters ACQUITY UPLC BEH C18, 100 × 2.1 mm, 1.7 µm, 0.2 mL/min, estimated dead time 1.1 min; A: water + 0.025% formic acid + 20 mM ammonium acetate + 0.055% ammonium hydroxide, pH 7; B: methanol; gradient (min/%B) 0/5 5/5 25/100 30/100 30.1/5 35/5
[10] = RP, Waters CORTECS T3, 100 × 2.1 mm, 2.7 µm, 0.3 mL/min, estimated dead time 0.73 min; A: water + 0.1% formic acid, pH 3; B: methanol + 0.1% formic acid, pH 3; gradient (min/%B) 0/0 5/0 25/100 30/100 30.1/0 35/0
[11] = HILIC, Merck SeQuant ZIC-HILIC, 150 × 2.1 mm, 5 µm, 0.75 mL/min, estimated dead time 0.44 min; A: water + 0.1% acetic acid + 10 mM ammonium acetate, pH 4; B: 5% water + 95% acetonitrile + 0.1% acetic acid + 10 mM ammonium acetate, pH 4; gradient (min/%B) 0/95 5/95 20/57 25/57 30/95 40/95
[12] = RP, Thermo Scientific Hypercarb, 150 × 2.1 mm, 5 µm, 0.1 mL/min, estimated dead time 3.3 min; A: water + 0.1% formic acid, pH 3; B: methanol + 0.1% formic acid, pH 3; gradient (min/%B) 0/5 5/5 20/100 35/100 35.1/5 45/5
[13] = RP, Waters CORTECS T3, 100 × 2.1 mm, 2.7 µm, 0.2 mL/min, estimated dead time 1.1 min; A: water + 0.1% formic acid, pH 3; B: methanol + 0.1% formic acid, pH 3; gradient (min/%B) 0/5 5/5 25/95 25.1/100 35/100 35.1/5 45/5
[14] = RP, Waters ACQUITY UPLC BEH C18, 100 × 2.1 mm, 1.7 µm, 0.1 mL/min, estimated dead time 2.2 min; A: water + 0.1% formic acid, pH 3; B: methanol + 0.1% formic acid, pH 3; gradient (min/%B) 0/5 5/5 25/95 25.1/100 35/100 35.1/5 45/5; remark: listed apart in the source
[15] = RP, Waters CORTECS T3, 100 × 2.1 mm, 2.7 µm, 0.25 mL/min, estimated dead time 0.88 min; A: water + 0.1% formic acid, pH 3; B: methanol + 0.1% formic acid, pH 3; gradient (min/%B) 0/0 1/0 6/5 30/100 35/100 35.1/0 40/0
[16] = RP, Waters CORTECS T3, 100 × 2.1 mm, 2.7 µm, 0.2 mL/min, estimated dead time 1.1 min; A: water + 0.1% formic acid, pH 3; B: methanol + 0.1% formic acid, pH 3; gradient (min/%B) 0/0 1/0 6/5 30/100 35/100 35.1/0 40/0; remark: listed apart in the source
[17] = RP, Waters CORTECS T3, 100 × 2.1 mm, 2.7 µm, 0.15 mL/min, estimated dead time 1.5 min; A: water + 0.1% formic acid, pH 3; B: methanol + 0.1% formic acid, pH 3; gradient (min/%B) 0/0 1/0 6/5 30/100 35/100 35.1/0 40/0
[18] = RP, Waters ACQUITY UPLC BEH C18, 100 × 2.1 mm, 1.7 µm, 0.1 mL/min, estimated dead time 2.2 min; A: water + 0.1% formic acid, pH 3; B: methanol + 0.1% formic acid, pH 3; gradient (min/%B) 0/5 5/5 25/100 30/100 30.1/5 35/5
[19] = RP, Waters CORTECS T3, 100 × 2.1 mm, 2.7 µm, 0.3 mL/min, estimated dead time 0.73 min; A: water + 0.1% formic acid, pH 3; B: methanol + 0.1% formic acid, pH 3; gradient (min/%B) 0/0 5/0 25/100 30/100 30.1/0 35/0; remark: listed apart in the source
[20] = RP, Waters CORTECS T3, 100 × 2.1 mm, 2.7 µm, 0.3 mL/min, estimated dead time 0.73 min; A: water + 0.1% formic acid, pH 3; B: methanol + 0.1% formic acid, pH 3; gradient (min/%B) 0/0 1/0 6/5 30/100 35/100 35.1/0 40/0; remark: listed apart in the source
[21] = RP, Waters CORTECS T3, 100 × 2.1 mm, 2.7 µm, 0.3 mL/min, estimated dead time 0.73 min; A: water + 0.1% formic acid, pH 3; B: methanol + 0.1% formic acid, pH 3; gradient (min/%B) 0/5 5/5 25/95 25.1/100 35/100 35.1/5 45/5
[22] = RP, Waters CORTECS T3, 100 × 2.1 mm, 2.7 µm, 0.1 mL/min, estimated dead time 2.2 min; A: water + 0.1% formic acid, pH 3; B: methanol + 0.1% formic acid, pH 3; gradient (min/%B) 0/0 1/0 6/5 30/100 35/100 35.1/0 40/0
[23] = RP, Waters CORTECS T3, 100 × 2.1 mm, 2.7 µm, 0.3 mL/min, estimated dead time 0.73 min; A: water + 0.1% formic acid, pH 3; B: methanol + 0.1% formic acid, pH 3; gradient (min/%B) 0/5 5/5 25/100 30/100 30.1/5 35/5
[24] = RP, Waters ACQUITY UPLC BEH C18, 100 × 2.1 mm, 1.7 µm, 0.1 mL/min, estimated dead time 2.2 min; A: water + 0.045% formic acid + 0.11% ammonium hydroxide, pH 7; B: methanol; gradient (min/%B) 0/5 5/5 25/95 25.1/100 35/100 35.1/5 45/5
[25] = RP, Waters CORTECS T3, 100 × 2.1 mm, 2.7 µm, 0.2 mL/min, estimated dead time 1.1 min; A: water + 0.045% formic acid + 0.11% ammonium hydroxide, pH 7; B: methanol; gradient (min/%B) 0/5 5/5 25/95 25.1/100 35/100 35.1/5 45/5
[26] = RP, Waters ACQUITY UPLC BEH C18, 100 × 2.1 mm, 1.7 µm, 0.2 mL/min, estimated dead time 1.1 min; A: water + 0.025% formic acid + 20 mM ammonium acetate + 0.055% ammonium hydroxide, pH 7; B: methanol; gradient (min/%B) 0/5 5/5 25/100 30/100 30.1/5 35/5; remark: listed apart in the source

Row | Structure (SMILES) | LC retention time [1] [min] | LC retention time [2] [min] | LC retention time [3] [min] | LC retention time [4] [min] | LC retention time [5] [min] | LC retention time [6] [min] | LC retention time [7] [min] | LC retention time [8] [min] | LC retention time [9] [min] | LC retention time [10] [min] | LC retention time [11] [min] | LC retention time [13] [min] | LC retention time [14] [min] | LC retention time [15] [min] | LC retention time [18] [min] | further results
1 | CC(=O)NC(CCC(=O)O)C(=O)O (racemic) [N-ACETYL-DL-GLUTAMIC ACID] | 3.1 | 2.27 | 14 | 2.22 | 4.43 | 1.77 | 2.89 | 13.6 | 1.36 | 2.22 | 13.6 |  |  |  |  | LC retention time [12]: 24 min
2 | NCCP(=O)(O)O [(2-AMINOETHYL)PHOSPHONATE] |  |  |  |  |  |  |  |  |  |  |  | 2.44 | 2.75 |  |  | 
3 | CN(CC(=O)O)C(N)=NP(=O)(O)O [CREATINE PHOSPHATE] |  |  |  |  |  |  |  |  |  |  |  |  | 3.05 |  |  | 
4 | C[N+](C)(C)CCOP(=O)(O)OP(=O)([O-])OCC1OC(n2ccc(N)nc2=O)C(O)C1O (configuration not stated) [CYTIDINE 5'-DIPHOSPHOCHOLINE] |  |  |  |  |  |  |  |  |  |  |  |  | 2.72 | 1.09 |  | LC retention time [16]: 1.34 min; LC retention time [17]: 1.78 min
5 | Nc1nc2c(ncn2C2OC(CO)C(O)C2O)c(=O)[nH]1 (configuration not stated) [GUANOSINE] | 7.02 | 3.31 | 10.5 | 5.43 | 2.7 | 2.95 | 4.79 | 10.3 | 1.76 |  | 10.1 | 10.9 |  |  | 2.74 | 
6 | CC(=O)N[C@@H](CC(C)C)C(=O)O [N-ACETYL-L-LEUCINE] | 14.6 | 13.3 | 6.56 | 12.8 | 17.2 | 12 | 14.3 | 7.4 | 6.59 | 12.2 | 5.95 | 18.4 |  |  |  | 
7 | CC(=O)N[C@@H](Cc1ccccc1)C(=O)O [N-ACETYL-L-PHENYLALANINE] | 15.3 | 13.8 | 6.61 | 13.6 | 17.7 | 12.7 | 14.9 | 6.98 | 8.81 | 12.8 | 5.57 | 19 |  | 14.4 | 17.3 | LC retention time [19]: 12.8 min; LC retention time [20]: 13.6 min; LC retention time [21]: 12 min; LC retention time [22]: 13.6 min; LC retention time [23]: 11.8 min; LC retention time [24]: 13.6 min; LC retention time [25]: 9.59 min
8 | CC(=O)NCCc1c[nH]c2ccc(O)cc12 [N-ACETYLSEROTONIN] |  |  | 1.15 |  | 13.7 |  | 11.8 | 0.95 | 10.2 |  | 1.09 | 15.3 |  | 11.3 | 13.6 | LC retention time [19]: 10.4 min; LC retention time [20]: 10.8 min; LC retention time [21]: 9.27 min; LC retention time [16]: 12.1 min; LC retention time [22]: 10.6 min; LC retention time [23]: 9.2 min; LC retention time [24]: 13.7 min; LC retention time [26]: 10.6 min; LC retention time [17]: 13.3 min; LC retention time [25]: 10.7 min
9 | NC(=O)c1ccc[n+](C2OC(COP(=O)(O)OP(=O)(O)OCC3OC(n4cnc5c(N)ncnc54)C(O)C3O)C(O)C2O)c1 (configuration not stated) [NAD] |  |  |  |  |  |  |  |  |  |  |  |  | 2.78 |  | 2.74 | 
10 | C[N+](C)(C)CCOP(=O)(O)O [PHOSPHOCHOLINE] |  |  |  |  |  |  |  |  |  |  |  |  | 2.66 |  |  | LC retention time [12]: 4.81 min
